Here are results for two molecules from patent publication US8226972B2, “Vaginal delivery of drugs” (FemmePharma Holding Company, Inc., priority 2001, dated 2012).

SMILES strings stand for the structures. Structures can show the parent of a compound that is named as a salt.

Experiment [1] has as its system urgency incontinence. In words: Example 4: clinical case studies, urgency incontinence / urinary frequency, urgency and nocturia. It is filed as in vivo, human. The following applies: person; 2 mg orally twice a day. As to the method: A person developed urgency incontinence two years after their laparoscopically assisted vaginal hysterectomy. […] However they experienced side effects, such as dry mouth, from the drug. Two weeks later, they started applying oxybutynin (5 mg) into the vagina at bed time, instead of Ditropan XL. […] The patient used vaginal oxybutynin (5 mg) at bed time for 6 months.
A person with a history of chronic pelvic pain and multiple surgical procedures, including pain mapping under conscious sedation and repair of occult bilateral inguinal hernias, developed urinary frequency, urgency and nocturia. Their urine analysis and urine culture were negative for signs of urinary tract infection. Their treatment began with vaginal oxybutynin (5 mg) once daily, at bed time, applied into the vagina.

The subject of experiment [2] is bladder. In words: Example 2: bladder contractile response to intra-arterial Ach. It is filed as in vivo, rabbit. The following applies: high dose of the free base form. The source says:
16 mature female New Zealand white rabbits were separated into two groups of eight. The rabbits in Group 1 received a high dose oxybutynin formulations; and the rabbits in Group 2 received a low dose oxybutynin formulation. For the high dose, 3 grams (g) of oxybutynin HCl were suspended in 6 g of gel (yielding a concentration of 0.5 g Oxybutynin/g gel) and 3 g of the formulation were placed in the vagina. For the low dose, 0.3 g of oxybutynin HCl were suspended in 6 g of gel (yielding a concentration of 0.05 g Oxybutynin/g gel), and 3 g of the formulation were placed in the vagina.
Acetylcholine (Ach), a chemical that causes the bladder muscle (detrusor) to squeeze or contract, was injected through the intra-arterial polyethylene catheter in a volume of 0.31-0.39 mL (i.e., 0.1 mL/kg of rabbit), followed by 0.2 mL of heparinized saline. Change of intravesical pressure following the administration of Ach (10^−6 mol/kg) was monitored by the pressure transducer and recorded on a Grass model 7D polygraph. A 10-minute interval passed between Ach administrations, and three flushes of normal saline, in an amount of 0.1 ml/kg of rabbit, were administered. Three responses to Ach were performed at 10-minute intervals to ensure consistent responses.
After the third Ach administration, the application of the oxybutynin containing gel was administered to the vagina and the responses to Ach were determined at 15-minute intervals for 2 hours. When the response to Ach was reduced, then the time period was extended to 4 hours. At the end of the experiment, a second cystometric curve was generated.
The protocol described in Example 1 was followed in this experiment, with the following changes. The infusion pump was turned on and, at an infusion rate of 1.42 mL/minute, a cystometric curve was generated.

Regarding `Cc1ccc(O)c([C@H](CCN(C(C)C)C(C)C)c2ccccc2)c1` [DETROL®, tolterodine tartrate], the “improvement of urgency incontinence” value in experiment [1] was “slight improvement”.
With `CCN(CC)CC#CCOC(=O)C(O)(c1ccccc1)C1CCCCC1` (centres unmarked) [free base form, oxybutynin], the “response to Ach” value in experiment [2] is listed as “no effect”.
